From publication PMC8026785, “The pharmacokinetics of [^18F]UCB-H revisited in the healthy non-human primate brain” (EJNMMI Research, 2021)
Values joined by “and” are separate entries in the source; they are usually repeats but may differ in a detail not shown here. Equal entries are not always repeated.

Target: T1, SV2A (Macaca fascicularis, UniProt Q4R4X3)
T1 construct: The current study evaluates [^18F]UCB-H pharmacokinetics in healthy NHPs; from tissue; host or cells: brain of living healthy cynomolgus monkeys (in vivo PET)
T1 sequence (Q4R4X3 whole entry): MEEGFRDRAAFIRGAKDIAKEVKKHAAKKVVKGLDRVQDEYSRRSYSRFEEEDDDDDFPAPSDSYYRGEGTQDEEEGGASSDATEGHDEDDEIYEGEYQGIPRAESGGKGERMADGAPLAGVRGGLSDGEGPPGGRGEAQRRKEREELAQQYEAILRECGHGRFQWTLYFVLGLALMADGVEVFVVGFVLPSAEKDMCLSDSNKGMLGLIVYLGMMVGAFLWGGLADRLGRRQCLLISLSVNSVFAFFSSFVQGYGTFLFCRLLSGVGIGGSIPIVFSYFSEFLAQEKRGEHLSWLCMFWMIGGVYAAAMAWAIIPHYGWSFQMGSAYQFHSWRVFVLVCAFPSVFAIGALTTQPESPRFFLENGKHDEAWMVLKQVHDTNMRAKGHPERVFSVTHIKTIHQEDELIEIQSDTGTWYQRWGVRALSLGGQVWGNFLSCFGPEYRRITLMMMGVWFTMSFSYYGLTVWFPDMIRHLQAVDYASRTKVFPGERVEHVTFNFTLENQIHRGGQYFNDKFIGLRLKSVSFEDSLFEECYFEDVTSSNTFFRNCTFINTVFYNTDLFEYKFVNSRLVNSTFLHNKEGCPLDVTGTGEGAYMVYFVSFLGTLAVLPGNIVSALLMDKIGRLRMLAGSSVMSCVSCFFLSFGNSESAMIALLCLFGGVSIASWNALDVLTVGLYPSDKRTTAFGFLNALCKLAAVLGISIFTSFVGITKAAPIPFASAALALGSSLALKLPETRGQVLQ
Experiment: Brain PET kinetic modelling (1TCM, 2TCM, 2TCM-c, Logan), test-retest
Type: in vivo, cynomolgus monkeys (Macaca fascicularis)
Description: All four non-human primates (NHP) underwent a 2-h (2 h) test and retest PET scan; two NHP underwent an additional 4-h (4 h) retest PET scan. Three NHP underwent one 4-h (4 h) displacement PET scan. Arterial blood sampling was performed during test and retest scans with PET imaging spaced by at least 3 weeks between each scan. To this end, the femoral artery opposite to the saphenous vein used for radioligand injection was cannulated. For the 2-h (2 h) scans, we collected in total 28 blood samples of 1 mL: 16 samples during the first 5 min followed by […] every 5 min and […] every 10 min. For the 4 h scans, we collected an additional 6 samples every 20 min during the last two hours (34 samples in total). Larger samples (2 – 3 mL) were collected at 5, 15, 30, 60, 90, 120 min (2 h) and at 180, 240 min (4 h) for metabolite analysis. Displacement of [^18F]UCB-H was done by intravenous (IV) administration 90 min after [^18F]UCB-H injection of a bolus of 30 mg/kg LEV, or of 80 µg/kg (≈250 nmol/kg) or 5 mg/kg (≈15 µmol/kg) of cold [^19F]-UCB-H. Full experimental design of all NHP is outlined in Additional file 1: Table 1.
PET imaging was performed on the microPET FOCUS220 (Siemens) under standard anesthesia and monitoring procedures. Data acquisition started with the IV bolus injection of [^18F]UCB-H (32.9 ± 1.0 MBq/kg, 0.35 ± 0.07 µg/kg). Dynamic PET images were reconstructed using standard OSEM-2D algorithms while correcting for radioactive decay, scatter, attenuation and detectors inhomogeneity, which were measured prior to PET scanning using respectively ^57Co and ^68Ge external sources.
PET image analysis was performed using PMOD software version 3.8 (PMOD Technologies Ltd., Zurich, Suisse). After individual co-registration of PET-MR images, a cynomolgus atlas published by Ballanger and coworkers was normalized to PET images to extract time activity curves in different brain regions. Volumes of interest (VOI) were cerebral white matter (16.7 cm^3), striatum (0.24 cm^3), thalamus (0.89 cm^3), cerebellum (3.83 cm^3), frontal—(2.50 cm^3), parietal—(5.35 cm^3), and temporal (8.22 cm^3) cortex, and whole brain (72.2 cm^3) as a composite region of all regions in the atlas. [^18F]UCB-H pharmacokinetics were evaluated by analyzing the time activity curves of the test- and retest scans using 1- and 2-tissue compartment models (unconstrained and constrained with global K1/k2 coupled fit across all regions, further referred to as 2TCM and 2TCM-c), and Logan graphical analysis with a fixed t* at 60 min [33] using the arterial plasma input function corrected for radio-metabolites to derive the volume of distribution in each region. Percentage standard error (%SE) was estimated from the theoretical parameter covariance matrix. Only reliable estimates (%SE less than 25%) were included in the current analyses. For the three drug studies, percent displacement of the total activity in the whole brain was estimated relative to an average baseline constructed from the two 4 h baseline studies. Briefly, Standardized Uptake Value (SUV) time activity curves (TACs) were calculated for the two baseline and the three displacement studies. Then, each curve was normalized to the SUV at t = 90 min, corresponding to the timeframe immediately before the administration of the drugs in the displacement studies. Baseline curves were averaged and the percent displacement of total activity was calculated as (baseline-displacement)/baseline at a given time post drug administration (see “Results”).
Statistical analysis was performed using R software (version 3.3.1.). Plasma, intact parent fraction and time activity curves were statistically compared between subjects using a one-factor variance analysis. Absolute Test–Retest variability (aTRV) of PET quantification parameters was calculated as ABS(test—retest) / AVERAGE(test, retest). […]

[1] = Parietal Cortex, Retest, individual NHP
[2] = Parietal Cortex, Test, individual NHP
[3] = Striatum, Retest, individual NHP

VT (2TCM) (Frontal cortex, Retest, mean): 13.1 mL/cm^3
VT (2TCM-c) (Frontal cortex, Retest, mean): 14.7 mL/cm^3
VT (Logan (t* = 60)) (Frontal cortex, Retest, mean): 14.8 mL/cm^3
k3/k4 (BPND) (2TCM-c) (Frontal cortex, Retest, mean): 1.32
VT (1TCM) (Frontal cortex, Test, mean): 13.8 mL/cm^3
VT (2TCM) (Frontal cortex, Test, mean): 16.3 mL/cm^3
VT (2TCM-c) (Frontal cortex, Test, mean): 14.8 mL/cm^3
VT (Logan (t* = 60)) (Frontal cortex, Test, mean): 15.0 mL/cm^3
k3/k4 (BPND) (2TCM-c) (Frontal cortex, Test, mean): 1.25
ICC of VT, overall (Logan): ~ 0.6
aTRV of VT, overall (Logan): ~ 11% and ~ 12%
aTRV of VT (MA1, data not shown): ~ 11%
K1/k2 (2TCM) [1]: 13.02 ml/cm^3 and 14.99 ml/cm^3
VT (2TCM) [1]: 13.98 ml/cm^3 and 13.26 ml/cm^3
k3/k4 (2TCM-c) [1]: 2.02 and 1.04 and 0.78 and 0.83
VT (2TCM) [2]: 12.22 ml/cm^3 and 18.71 ml/cm^3
k3/k4 (2TCM) [2]: 0.59
k3/k4 (2TCM-c) [2]: 1.56 and 1.38 and 0.37 and 1.00
ICC of 2TCM-c VT (Parietal cortex): 0.38
ICC of Logan (t* = 60) VT (Parietal cortex): 0.75
aTRV of 2TCM-c VT (Parietal cortex): 19%
aTRV of Logan (t* = 60) VT (Parietal cortex): 12%
VT (1TCM) (Parietal cortex, Retest, mean): 14.8 mL/cm^3
VT (2TCM) (Parietal cortex, Retest, mean): 13.6 mL/cm^3
VT (2TCM-c) (Parietal cortex, Retest, mean): 16.1 mL/cm^3
VT (Logan (t* = 60)) (Parietal cortex, Retest, mean): 15.7 mL/cm^3
k3/k4 (BPND) (2TCM-c) (Parietal cortex, Retest, mean): 1.17
VT (1TCM) (Parietal cortex, Test, mean): 14.3 mL/cm^3
VT (2TCM) (Parietal cortex, Test, mean): 15.5 mL/cm^3
VT (2TCM-c) (Parietal cortex, Test, mean): 15.4 mL/cm^3
VT (Logan (t* = 60)) (Parietal cortex, Test, mean): 15.4 mL/cm^3
k3/k4 (BPND) (2TCM-c) (Parietal cortex, Test, mean): 1.08
ICC of Logan (t* = 60) VT (Striatum): 0.67
aTRV of 2TCM-c VT (Striatum): 12%
aTRV of Logan (t* = 60) VT (Striatum): 11%
K1/k2 (2TCM) [3]: 11.34 ml/cm^3 and 15.36 ml/cm^3
VT (2TCM) [3]: 13.09 ml/cm^3 and 15.01 ml/cm^3
k3/k4 (2TCM-c) [3]: 0.80 and 2.25 and 0.97 and 0.45
VT (1TCM) (Striatum, Retest, mean): 14.8 mL/cm^3
VT (2TCM) (Striatum, Retest, mean): 14.1 mL/cm^3
VT (2TCM-c) (Striatum, Retest, mean): 15.3 mL/cm^3
Compound: O=C1C[C@H](c2cc(F)c(F)c(F)c2)CN1Cc1ccncc1[18F] [[^18F]UCB-H]
K1 (2TCM) [1]: 0.42 ml/cm^3 /min and 0.32 ml/cm^3 /min and 0.38 ml/cm^3 /min and 0.33 ml/cm^3 /min
K1 (2TCM-c) [1]: 0.44 ml/cm^3 /min and 0.33 ml/cm^3 /min and 0.38 ml/cm^3 /min and 0.34 ml/cm^3 /min
K1/k2 (2TCM-c) [1]: 4.64 ml/cm^3 and 9.07 ml/cm^3 and 10.70 ml/cm^3 and 7.25 ml/cm^3
VT (1TCM) [1]: 13.99 ml/cm^3 and 16.57 ml/cm^3 and 15.57 ml/cm^3 and 13.26 ml/cm^3
VT (2TCM-c) [1]: 14.02 ml/cm^3 and 18.28 ml/cm^3 and 18.66 ml/cm^3 and 13.26 ml/cm^3
VT (Logan) [1]: 13.75 ml/cm3 and 19.72 ml/cm3 and 15.91 ml/cm3 and 13.60 ml/cm3
K1 (2TCM) [2]: 0.22 ml/cm^3 /min and 0.40 ml/cm^3 /min and 0.41 ml/cm^3 /min and 0.18 ml/cm^3 /min
K1 (2TCM-c) [2]: 0.23 ml/cm^3 /min and 0.41 ml/cm^3 /min and 0.42 ml/cm^3 /min and 0.18 ml/cm^3 /min
K1/k2 (2TCM) [2]: 7.68 ml/cm^3 and 12.37 ml/cm^3 and 12.79 ml/cm^3 and 13.88 ml/cm^3
K1/k2 (2TCM-c) [2]: 4.35 ml/cm^3 and 8.22 ml/cm^3 and 10.99 ml/cm^3 and 7.86 ml/cm^3
VT (1TCM) [2]: 10.65 ml/cm^3 and 17.46 ml/cm^3 and 14.10 ml/cm^3 and 15.09 ml/cm^3
VT (2TCM-c) [2]: 11.12 ml/cm^3 and 17.78 ml/cm^3 and 15.03 ml/cm^3 and 17.47 ml/cm^3
VT (Logan) [2]: 11.83 ml/cm3 and 18.19 ml/cm3 and 15.28 ml/cm3 and 16.49 ml/cm3
K1 (2TCM) [3]: 0.41 ml/cm^3 /min and 0.54 ml/cm^3 /min and 0.44 ml/cm^3 /min and 0.46 ml/cm^3 /min
K1 (2TCM-c) [3]: 0.42 ml/cm^3 /min and 0.58 ml/cm^3 /min and 0.46 ml/cm^3 /min and 0.47 ml/cm^3 /min
K1/k2 (2TCM-c) [3]: 7.25 ml/cm^3 and 4.64 ml/cm^3 and 9.07 ml/cm^3 and 10.70 ml/cm^3
VT (1TCM) [3]: 13.04 ml/cm^3 and 14.96 ml/cm^3 and 15.52 ml/cm^3 and 15.75 ml/cm^3
VT (2TCM-c) [3]: 13.08 ml/cm^3 and 15.06 ml/cm^3 and 17.64 ml/cm^3 and 15.26 ml/cm^3
VT (Logan) [3]: 13.39 ml/cm3 and 14.93 ml/cm3 and 18.31 ml/cm3 and 16.14 ml/cm3
